Measurements from patent US10660789B2, “1,4-dihydropyridine derivatives with HSP modulating activity” (Richter Gedeon NYRT., priority 2011, dated 2020).
Structures can show the parent of a compound that is named as a salt.

test system: other Hsps; experiment: Other in vitro HSP modulating effects (Table 3); format: cell-based, mouse and human; parameters: key: +: co-inducing activity; −: silencing activity; 0: with the experimental methods applied no other HSP modulating effects could be identified
Method: The Hsp co-inducing effect of the compounds on stress response was tested on B16 mouse melanoma and SHSY5Y human neuroblastoma cell lines stably transfected with Hsp promoter probing plasmids. This kind of promoter probing, using the promoter region of a given gene conjugated with fluorescent protein is used as a best and fastest test system for finding drugs which modulate the activity of the gene followed by the given promoter (Wyshocka et al., Mol. Cel. Biochem. 215:153-156, 2000).
Reporter plasmids, containing the Hsp70 and/or Hsp25 promoter conjugated to either YFP or GFP (yellow or green fluorescent protein), were stably transfected into the cells and the expression of YFP or GFP was followed by flow cytometry. Cells were either kept at 37° C. or exposed to heat shock at 42° C. for 1 hour followed by a 16 hour recovery period at 37° C. in the presence or absence of different concentrations of the test compound. After recovery the expression of YFP or GFP which is in straight correlation with the promoter activity of Hsp70 or Hsp27 genes was followed by measuring the fluorescence intensity of the cells by flow cytometry. Fluorescence intensity is in straight correlation with the amount of fluorescent protein (GFP or YFP) produced under the control of hsp promoter. The mean fluorescence intensity of YFP or GFP produced is shown as “Hsp promoter activity”.
Cells were homogenously distributed on 6-well plates in 1×10^5 cells/well density. B16-pHsp25-GFP and B16-pHsp70-YFP melanoma cells were grown in RPMI-1640 medium supplemented with 10% Fetal bovine serum (FBS), penicillin (200 units/ml), streptomycin (200 μg/ml) and 2 mM L-Glutamine. For maintaining the SH-SY5Y-pHsp25-GFP and SH-SY5YpHsp70-YFP neuroblastoma cell lines Dulbecco's modified Eagle's medium (DMEM-F-12) containing 10% FBS, 2 mM L-Glutamine, penicillin (200 units/ml), streptomycin (200 μg/ml) and MEM non-essential amino acids were used. Before the treatments both cell lines were incubated at 37° C. in a saturated humidity atmosphere containing 95% air and 5% CO2. After 24 h incubation cells were pretreated with compounds of the invention in four different concentrations (usually in 3; 10; 20 and 50 μM) 30 min before the heat shock at 42° C. for 1 h and then incubated further at 37° C. for 16 h (recovery period). After this procedure cells were trypsinized and suspensed in 500 μl serum-free DMEM-F12 medium. The changes in cells' fluorescence were detected using BD FACSCalibur flow cytometer.
SY-SY5Y and B16 cells were extracted in NP-40 lysis buffer (PBS pH 7.4, 1% protease inhibitor coctail and 1% Triton X-100). The cell extracts were then constantly agitated at 4° C. for 2 h. The cell extracts were centrifuged at 12000×g for 30 min and supernatants were saved. After the protein concentration measurement 15 μg of total protein was separated by sodium dodecyl sulfate-polyacrylamide gel electrophoresis (SDS-PAGE) under reducing conditions according to the method of Laemmli. Proteins were blotted onto PVDF membrane. The blot was incubated overnight at 4° C. in the presence of mouse α-Hsp25, α-Hsp70, α-Hsp60 és α-Hsp90 monoclonal antibodies diluted in PBS. Then, the membrane was washed three times in PBS-0.05% Tween and incubated for 1 h in peroxidase-conjugated anti-mouse IgG antibody diluted 1:50000 in PBS containing 3% non-fat dry milk. The immune complexes were detected with chemo-luminescent substrate of peroxidase according to the supplier's instructions. Images taken from the membranes were analyzed using AlphaEase FC software.

Point of comparison: COC(=O)C1=C(C)N(C)C(CN2CCc3ccccc3C2)=C(C(=O)OC)C1c1ccc(C(F)(F)F)cc1.Cl (centres unmarked) [Example 49, Dimethyl 2-(1,2,3,4-tetrahydro-1H-isoquinolin-2-ylmethyl)-1,6-dimethyl-4-(4-trifluoromethylphenyl)-1,4-dihydropyridine-3,5-dicarboxylate hydrochloride], “Other in vitro effects” value 0. Against it:
- COC(=O)C1=C(C)N(C)C(C)=C(C(=O)OC)C1c1ccc(Cl)cc1 [Example 4, Dimethyl 1,2,6-trimethyl-4-(4-chlorophenyl)-1,4-dihydropyridine-3,5-dicarboxylate] — the same, 0
- COC(=O)C1=C(C)N(C)C(C)=C(C(=O)OC)C1c1ccc(OC)cc1 [Example 6, Dimethyl 1,2,6-trimethyl-4-(4-methoxyphenyl)-1,4-dihydropyridine-3,5-dicarboxylate] — the same, 0
- COC(=O)C1=C(CCN2CCN(C)CC2)N(C)C(CCN2CCN(C)CC2)=C(C(=O)OC)C1c1ccc(C(F)(F)F)cc1 [Example 16, Dimethyl 1-methyl-2,6-bis-[2-(4-methyl-piperazin-1-yl)-ethyl]-4-(4-trifluoromethylphenyl)-1,4-dihydropyridine-3,5-dicarboxylate hydrochloride] — the same, 0

test system: not given; experiment: not given

First: COC(=O)C1=C(C)N(C)C(CCN2CCCC2)=C(C(=O)OC)C1c1ccc(C(F)(F)F)cc1.Cl (centres unmarked)
Second: COC(=O)C1=C(C)N(C)C(CN2CCCC2)=C(C(=O)OC)C1c1ccc(C(F)(F)F)cc1.Cl (centres unmarked)
The melting point of the first is higher: 218 to 219 °C for the first, 182 to 185 °C for the second.

First: COC(=O)C1=C(C)N(C)C(CCN2CCOCC2)=C(C(=O)OC)C1c1ccc(C(F)(F)F)cc1.Cl (centres unmarked)
Second: COC(=O)C1=C(CCN(C)C)N(C)C(CCN2CCOCC2)=C(C(=O)OC)C1c1ccc(C(F)(F)F)cc1 (centres unmarked) (as salt: hydrochloride) [Example 31, Dimethyl 2-(2-dimethylamino-ethyl)-1-methyl-6-(2-morpholin-1-yl-ethyl)-4-(4-trifluoromethylphenyl)-1,4-dihydropyridine-3,5-dicarboxylate dihydrochloride]
The melting point of the first is lower: 188 to 193 °C for the first, 247 to 248 °C for the second.

First: COC(=O)C1=C(C)N(C)C(CCN2CCOCC2)=C(C(=O)OC)C1c1ccccc1Cl.Cl (centres unmarked)
Second: COC(=O)C1=C(C)N(C)C(C)=C(C(=O)OC)C1c1ccccc1Cl [Example 18, Dimethyl 4-(2-chlorophenyl)-1,2,6-trimethyl-1,4-dihydropyridine-3,5-dicarboxylate]
The melting point of the first is higher: 171 to 173 °C for the first, 154 to 155 °C for the second.

Compared with COC(=O)C1=C(C)N(C)C(CCN2CCc3ccccc3CC2)=C(C(=O)OC)C1c1ccc(C(F)(F)F)cc1.O=C(O)/C=C/C(=O)O (centres unmarked), COC(=O)C1=C(C)N(C)C(CN2CCc3ccccc3C2)=C(C(=O)OC)C1c1ccc(C(F)(F)F)cc1.Cl (centres unmarked) [Example 49, Dimethyl 2-(1,2,3,4-tetrahydro-1H-isoquinolin-2-ylmethyl)-1,6-dimethyl-4-(4-trifluoromethylphenyl)-1,4-dihydropyridine-3,5-dicarboxylate hydrochloride] is lower in melting point: 202 to 203 °C for the first, 175 to 177 °C for the second.

Compared with COC(=O)C1=C(C)N(C)C(CN2CCCCC2)=C(C(=O)OC)C1c1ccc(C(F)(F)F)cc1.Cl (centres unmarked), COC(=O)C1=C(C#N)N(C)C(CN2CCCC2)=C(C(=O)OC)C1c1ccc(C(F)(F)F)cc1.Cl (centres unmarked) is lower in melting point: 190 to 192 °C for the first, 173 to 175 °C for the second.

First: COC(=O)C1=C(C#N)N(C)C(CCN(C)C)=C(C(=O)OC)C1c1ccc(C(F)(F)F)cc1.Cl (centres unmarked)
Second: COC(=O)C1=C(CCN(C)C)N(C)C(CCN2CCCCC2)=C(C(=O)OC)C1c1ccc(C(F)(F)F)cc1 (centres unmarked) (as salt: hydrochloride) [Example 30, Dimethyl 2-(2-dimethylamino-ethyl)-1-methyl-6-(2-piperidin-1-yl-ethyl)-4-(4-trifluoromethylphenyl)-1,4-dihydropyridine-3,5-dicarboxylate dihydrochloride]
The melting point of the first is lower: 215 to 216 °C for the first, 247 to 249 °C for the second.

First: COC(=O)C1=C(CCN2CCN(C)CC2)N(C)C(CCN2CCN(C)CC2)=C(C(=O)OC)C1c1ccccc1Cl (as salt: hydrochloride)
Second: COC(=O)C1=C(CCN2CCN(C)CC2)N(C)C(CCN2CCN(C)CC2)=C(C(=O)OC)C1c1ccc(C(F)(F)F)cc1 (as salt: hydrochloride) [Example 16, Dimethyl 1-methyl-2,6-bis-[2-(4-methyl-piperazin-1-yl)-ethyl]-4-(4-trifluoromethylphenyl)-1,4-dihydropyridine-3,5-dicarboxylate hydrochloride]
The melting point of the first is higher: 210 to 215 °C for the first, 195 to 200 °C for the second.

First: COC(=O)C1=C(CCN2CCCC2)N(C)C(CCN2CCCC2)=C(C(=O)OC)C1c1ccccc1Cl (as salt: hydrochloride) [Example 19, Dimethyl 4-(2-chlorophenyl)-1-methyl-2,6-bis-(2-pyrrolidin-1-yl-ethyl)-1,4-dihydropyridine-3,5-dicarboxylate dihydrochloride]
Second: COC(=O)C1=C(CCN(C)C)N(C)C(CCN(C)C)=C(C(=O)OC)C1c1ccccc1Cl (as salt: hydrochloride) [Example 22, Dimethyl 4-(2-chorophenyl)-2,6-bis-(2-dimethylaminoethyl)-1-methyl-1,4-dihydropyridine-3,5-dicarboxylate dihydrochloride]
The melting point of the first is lower: 188 to 193 °C for the first, 241 to 245 °C for the second.

Compared with COC(=O)C1=C(CCN(C)C)N(C)C(CCN(C)C)=C(C(=O)OC)C1c1cc(F)cc(F)c1 (as salt: hydrochloride) [Example 25, Dimethyl 4-(3,5-Difluorophenyl)-2,6-bis-(2-dimethylaminoethyl)-1-methyl-1,4-dihydropyridine-3,5-dicarboxylate dihydrochloride], COC(=O)C1=C(CCN(C)C)N(C)C(CCN2CCc3cc(OC)c(OC)cc3C2)=C(C(=O)OC)C1c1ccc(C(F)(F)F)cc1 (centres unmarked) (as salt: hydrochloride) [Example 42, Dimethyl 2-[2-(6,7-dimethoxy-1,2,3,4-tetrahydroisoquinolin-2-yl)-ethyl]-6-(2-dimethylamino-ethyl)-1-methyl-4-(4-trifluoromethylphenyl)-1,4-dihydropyridine-3,5-dicarboxylate dihydrochloride] is lower in melting point: 261 to 265 °C for the first, 210 to 211 °C for the second.

First: COC(=O)C1=C(C)N(C)C(C)=C(C(=O)OC)C1c1ccc(Cl)cc1 [Example 4, Dimethyl 1,2,6-trimethyl-4-(4-chlorophenyl)-1,4-dihydropyridine-3,5-dicarboxylate]
Second: COC(=O)C1=C(C)N(C)C(C)=C(C(=O)OC)C1c1ccc(C)cc1 [Example 5, Dimethyl 1,2,6-trimethyl-4-(4-methylphenyl)-1,4-dihydropyridine-3,5-dicarboxylate]
The melting point of the first is higher: 179 to 180 °C for the first, 176 to 178 °C for the second.

First: COC(=O)C1=C(C)N(C)C(C)=C(C(=O)OC)C1c1ccc(OC)cc1 [Example 6, Dimethyl 1,2,6-trimethyl-4-(4-methoxyphenyl)-1,4-dihydropyridine-3,5-dicarboxylate]
Second: COC(=O)C1=C(C)N(C)C(C)=C(C(=O)OC(C)C)C1c1ccc(C(F)(F)F)cc1 (centres unmarked) [Example 28, 1,2,6-Trimethyl-4-(4-trifluoromethylphenyl)-1,4-dihydropyridine-3,5-dicarboxylic acid 3-isopropyl ester 5-methyl ester]
The melting point of the first is higher: 163 to 164 °C for the first, 92 to 94 °C for the second.

Compared with COC(=O)C1=C(C)N(C)C(C)=C(C(=O)OC(C)(C)C)C1c1ccc(C(F)(F)F)cc1 (centres unmarked) [Example 29, 1,2,6-Trimethyl-4-(4-trifluoromethylphenyl)-1,4-dihydropyridine-3,5-dicarboxylic acid 3-tert-butyl ester 5-methyl ester], COC(=O)C1=C(C)N(C)C(C)=C(C(=O)O)C1c1ccc(C(F)(F)F)cc1 (centres unmarked) [Example 35, 1,2,6-Trimethyl-4-(4-trifluoromethylphenyl)-1,4-dihydropyridine-3,5-dicarboxylic acid monomethyl ester] is higher in melting point: 128 to 130 °C for the first, 150 to 155 °C for the second.

CC1=C(C(=O)O)C(c2ccc(C(F)(F)F)cc2)C(C(=O)O)=C(C)N1C [Example 36, 1,2,6-Trimethyl-4-(4-trifluoromethylphenyl)-1,4-dihydropyridine-3,5-dicarboxylic acid] gave a melting point of 152 to 153 °C.
